CC50 data for 2 molecules are collected here from ChEMBL document CHEMBL1159373, “New acetylenic acids from a sponge of the genus Stelletta” (2003).

This assay concerns K562. Briefly: Cytotoxicity against human K562 cells. The class given is functional. The following applies: read-out: LC50 (the source's name).

≈ marks a conversion by molar mass, not a printed value.

As for `C=CCCCCC(C)CCCCCC#CCCC(OC)C(=O)OC(=O)C(CCC#CCCCCCC(C)CCCCC=C)OC` (configuration not stated), the CC50 is 62.5 µg/mL (≈ 99.7 µM).

Take `C=CCCCCC(C)CCCCCC#CCCCC(=O)O` (configuration not stated): the CC50 turned out to be 43.5 µg/mL (≈ 149 µM).
